This note sets out measurements from US20260241039A1, “FLUORESCENT PROBES FOR MAGL” (Hoffmann-La Roche Inc., priority 2022, published 2026).

The test concerns the target T1, hMAGL (Homo sapiens, UniProt Q99685).
T1 sequence (Q99685 1-303): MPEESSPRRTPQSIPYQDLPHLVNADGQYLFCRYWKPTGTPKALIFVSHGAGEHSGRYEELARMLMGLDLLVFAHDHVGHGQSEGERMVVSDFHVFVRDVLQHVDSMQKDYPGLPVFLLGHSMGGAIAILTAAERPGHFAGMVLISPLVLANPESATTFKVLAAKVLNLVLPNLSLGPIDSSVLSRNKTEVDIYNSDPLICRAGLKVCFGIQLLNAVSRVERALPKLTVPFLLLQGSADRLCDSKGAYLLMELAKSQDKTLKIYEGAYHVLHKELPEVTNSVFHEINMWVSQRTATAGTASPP
Description: 2-AG assay: MAGL inhibitory activity, hydrolysis of 2-arachidonoylglycerol to arachidonic acid followed by mass spectrometry. It counts as biochemical. The conditions noted are these: 15 min pre-incubation at RT, 30 min reaction at RT, 8 μM 2-arachidonoylglycerol. As to the method:
Compounds were profiled for MAGL inhibitory activity by determining the enzymatic activity by following the hydrolysis of the natural substrate 2-arachidonoylglycerol (2-AG) resulting in arachidonic acid, which can be followed by mass spectrometry. This assay is hereinafter abbreviated “2-AG assay”.
The 2-AG assay was carried out in 384 well assay plates (PP, Greiner Cat #784201) in a total volume of 20 μL. Compound dilutions were made in 100% DMSO (VWR Chemicals 23500.297) in a polypropylene plate in 3-fold dilution steps to give a final concentration range in the assay from 12.5 μM to […]. 0.25 μL compound dilutions (100% DMSO) were added to 9 μL MAGL in assay buffer (50 mM TRIS (GIBCO, 15567-027), 1 mM EDTA (Fluka, 03690-100 mL), 0.01% (v/v) Tween. After shaking, the plate was incubated for 15 min at RT. To start the reaction, 10 μL 2-arachidonoylglycerol in assay buffer was added. The final concentrations in the assay was […] and 8 μM 2-arachidonoylglyerol. After shaking and 30 min incubation at RT, the reaction was quenched by the addition of 40 μL of ACN containing 4 μM of d8-arachidonic acid. The amount of arachidonic acid was traced by an online SPE system (Agilent Rapidfire) coupled to a triple quadrupole mass spectrometer (Agilent 6460). A C18 SPE cartridge (G9205A) was used in an ACN/water liquid setup. The mass spectrometer was operated in negative electrospray mode following the mass transitions 303.1→259.1 for arachidonic acid and 311.1→267.0 for d8-arachidonic acid. The activity of the compounds was calculated based on the ratio of intensities [arachidonic acid/d8-arachidonic acid].
What is called IC50 is the concentration at which inhibition is half-maximal. Consider `O=C1CO[C@H]2CCN(C(=O)N3CC(COC4=C5C=CC=[N+]5[B-](F)(F)n5cccc54)C3)C[C@H]2N1` [Example 7, (4aR,8aS)-6-(3-(((5,5-difluoro-5H-4λ^4,5λ^4-dipyrrolo[1,2-c:2,1′-f][1,3,2]diazaborinin-10-yl)oxy)methyl)azetidine-1-carbonyl)hexahydro-2H-pyrido[4,3-b][1,4]oxazin-3(4H)-one], for which half-maximal inhibition (IC50) was put at 2590 nM. “(4aR,8aS)-6-(6-((5,5-difluoro-3-phenyl-5H-4λ^4,5λ^4-dipyrrolo[1,2-c:2′,1′-f][1,3,2]diazaborinin-10-yl)methyl)-2-azaspiro[3.3]heptane-2-carbonyl)hexahydro-2H-pyrido[4,3-b][1,4]oxazin-3(4H)-one [Example 29]” registered an IC50 of 0.66 nM. Then `O=C1CO[C@H]2CCN(C(=O)N3CC4(CC(Oc5ccc6ccc(=O)oc6c5)C4)C3)C[C@H]2N1` [Example 1], with 255 nM. In the case of “6-(6-((5,5-difluoro-5H-4λ^4,5λ^4-dipyrrolo[1,2-c:2′,1′-f][1,3,2]diazaborinin-10-yl)methyl)-2-azaspiro[3.3]heptane-2-carbonyl)-2H-benzo[b][1,4]oxazin-3(4H)-one [Example 24]”, the IC50 is 7.5 nM.

“2-(6-((5,5-difluoro-5H-4λ^4,5λ^4-dipyrrolo[1,2-c:2′,1′-f][1,3,2]diazaborinin-10-yl)methyl)-2-azaspiro[3.3]heptane-2-carbonyl)-7-oxa-2,5-diazaspiro[3.4]octan-6-one [Example 23]” displayed an IC50 of 1.26 nM. Then “(4aR,8aS)-6-(4-((5,5-difluoro-5H-4λ^4, 5λ^4-dipyrrolo[1,2-c:2,1′-f][1,3,2]diazaborinin-O-yl)methylene)piperidine-1-carbonyl)hexahydro-2H-pyrido[4,3-b][1,4]oxazin-3(4H)-one [Example 17]”, with 1680 nM; and “(R)-4-(3-(6-((5,5-difluoro-5H-4λ^4,5λ^4-dipyrrolo[1,2-c:2′,1′-f][1,3,2]diazaborinin-10-yl)methyl)-2-azaspiro[3.3]heptan-2-yl)-3-oxopropyl)oxazolidin-2-one [Example 28]”, with 1.01 nM.
